# Key:
# UM-UC-9 cells [1] = experiment: Direct cell counting dose-response proliferation assay; type: cell-based, human
# Protocol: To determine whether PPARG modulators affect the proliferation and/or viability of PPARG-activated bladder cancer cell lines, a direct cell counting-based assay was performed. This assay likely avoids potential artifacts associated with the use of an ATP content-based assay, given that PPAR modulators are known to regulate cellular metabolic activity. […] These IC50 values align well with the calculated IC50s from both the cell-based reporter gene assay (FIG. 8A) and the biochemical corepressor assay (FIG. 8D).
# (§1) Proliferation Assays: To enable cell-counting experiments, cell lines were transduced with a lentiviral vector encoding nuclear-targeted GFP, TagGFP2-H2B (Evrogen), and stable pools generated following selection for puromycin resistance. Cell lines were maintained for at least 7 days following selection prior to expansion and seeding into 96- or 384-well plates for further analysis. For kinetic proliferation assays, 96-well plates (n 1% 4 per condition) were imaged and counted every two hours using IncuCyte Zoom (Essen BioScience). Media and compounds were replaced approximately every 3-4 days. For endpoint assays to measure dose-response, cells were plated in 384-well plates, dosed with compound, and upon reaching approximately 70% to 90% confluence in control wells, cells were either counted using fluorescence imaging (Incu-Cyte Zoom) or incubated with CyQuant (Thermo Fisher) at the indicated time and plates were read with a fluorescent plate reader.
# [2] = target: T1, PPARG ligand-binding domain - TRAP220/MED1 coactivator peptide (Homo sapiens, UniProt P37231); experiment: TR-FRET coactivator assay, TRAP220/MED1 peptide; type: biochemical
# T1 construct: purchased ThermoFisher Scientific
# T1 sequence (P37231 238-503 limits assumed): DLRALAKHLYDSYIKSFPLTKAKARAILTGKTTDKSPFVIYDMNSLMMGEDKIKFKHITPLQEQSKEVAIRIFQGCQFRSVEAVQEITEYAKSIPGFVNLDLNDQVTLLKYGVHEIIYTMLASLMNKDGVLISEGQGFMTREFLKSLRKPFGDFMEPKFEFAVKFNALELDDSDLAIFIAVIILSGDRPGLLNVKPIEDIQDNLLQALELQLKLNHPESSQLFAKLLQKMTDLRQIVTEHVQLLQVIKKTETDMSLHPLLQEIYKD
# UM-UC-9 cells [3] = experiment: Kinetic proliferation assay (IncuCyte), percent of DMSO control; type: cell-based, human; conditions: 100 nmol/L; DMSO control at 50% confluency
# Excerpt: This assay was expanded to include an additional 8 representative bladder cancer cell lines, including cell lines with PPARG amplification, RXRA p.S427F mutation, activated gene signature, and control cell lines with low level expression of PPARG and target genes. […] Representative data for the UM-UC-9 cell line are shown in FIG. 6B, and is tabulated for the tested bladder cancer cell lines in Table 1. […] Similar results were obtained with these cell lines in parallel studies using clonogenic assays to quantify colony-forming ability (FIG. 10).
# as §1, with “Cell lines were maintained for at least 7 days following selection prior to expansion and seeding into 96- or 384-well plates for further analysis.” left out, “Media and compounds were replaced approximately every 3-4 days.” left out
# [4] = tested on: PPARG-activated pancreatic and colorectal cancer cell lines; experiment: Kinetic proliferation assay in pancreatic and colorectal cancer cell lines; type: cell-based; conditions: 500 nM
# Excerpt: To enable cell-counting, cell lines were transduced with a lentiviral vector encoding nuclear-targeted GFP (TagGFP2-H2B), and stable pools generated following selection for puromycin-resistance. Cell lines were maintained for at least 7 days following selection prior to expansion and seeding into 96-well plates for further analysis. For kinetic proliferation assays, 96-well plates were imaged in phase-contrast and green fluorescence mode every two hours using IncuCyte Zoom (Essen BioScience, Ann Arbor MI). Using IncuCyte software, the number of fluorescent nuclei were counted to monitor quantitative changes in cell number over time. Media and compounds were replaced approximately every 3-4 days.
# DMSO treatment was also included as a vehicle control.
# PPARG [5] = target: T2, PPARG (Homo sapiens, UniProt P37231); experiment: RT112/84 FABP4-NLucP reporter gene assay, antagonist mode with rosiglitazone; type: cell-based; conditions: in the presence of rosiglitazone
# T2 construct: endogenous in cells; host or cells: RT112/84 bladder cancer cells (FABP4-NLucP knock-in clone)
# T2 sequence (P37231 1-477 isoform P37231-2): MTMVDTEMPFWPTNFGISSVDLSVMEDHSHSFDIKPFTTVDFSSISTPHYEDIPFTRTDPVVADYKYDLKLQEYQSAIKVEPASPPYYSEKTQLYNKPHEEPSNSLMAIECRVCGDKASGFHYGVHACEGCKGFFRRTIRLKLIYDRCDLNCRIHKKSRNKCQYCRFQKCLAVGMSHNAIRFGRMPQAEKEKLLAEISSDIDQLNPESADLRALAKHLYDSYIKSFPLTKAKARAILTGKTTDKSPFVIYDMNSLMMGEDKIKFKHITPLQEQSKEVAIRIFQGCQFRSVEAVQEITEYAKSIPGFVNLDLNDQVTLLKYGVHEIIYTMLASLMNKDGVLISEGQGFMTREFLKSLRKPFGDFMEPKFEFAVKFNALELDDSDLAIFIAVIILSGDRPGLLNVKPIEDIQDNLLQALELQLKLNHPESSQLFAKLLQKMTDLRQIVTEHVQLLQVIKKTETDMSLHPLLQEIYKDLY
# Protocol: (§2) RT112-FABP4-NLucP Reporter Gene Assay: Reporter cell line was generated by engineering NanoLuc gene into the 3′ UTR of FABP4 in RT112/84 cells using CRISPR/Cas9 guided genome engineering. Single cell clones were generated and the clone with the widest dynamic range selected for use. Assays were performed by seeding 384-well plates with ˜10,000 cells per well in MEMalpha containing 10% FBS and dosing compounds at indicated concentration using HP D300 digital dispenser (HP/Tecan). 18-24 hours after dosing with compound, cells were assayed using NanoGlo Luciferase Assay Reagent (Promega Madison, WI) and plates were read using EnVision Multilabel Reader (PerkinElmer Waltham, MA).
# PPARG [6] = target: T2, PPARG; experiment: RT112/84 FABP4-NLucP reporter gene assay, unstimulated; type: cell-based
# Excerpt: Next, a PPARG reporter cell line was engineered to enable higher throughput assays to evaluate PPARG transactivation. Briefly, a destabilized NanoLuc luciferase reporter gene was inserted into the 3′-UTR of the FABP4 gene in the RT112/84 bladder cancer cell line using CRISPR/Cas9 mediated homology-directed repair (FIG. 4A).
# as §2
smiles,measurement,setting,value
O=C(Nc1ccccc1)c1cc([N+](=O)[O-])ccc1Cl [GW9662],effect on cell proliferation compared with DMSO control,UM-UC-9 cells [1],no significant effects
same,effect in coactivator assay,[2],minimal effect
same,effect on proliferation relative to control,UM-UC-9 cells [3],no effect
same,sensitivity of cell lines,[4],not sensitive
same,effect on agonist-induced signal,PPARG [5],decreased the agonist-induced signal back to the original baseline
same,effect on unstimulated reporter,PPARG [6],minimal detectable effect

# Reference: patent US11896678B2, “Compositions and methods for treatment of peroxisome proliferator-activated receptor gamma (PPARG) activated cancer” (THE BROAD INSTITUTE, INC., priority 2017, dated 2024)
